In one data set the test system is rat blood. Description: Clotting (streak) assay of thrombotic potential. On the procedure: Clotting assays. Thrombotic potential was assessed with trunk blood from donor rats using a protocol modified from Kim et al. (Kim et al., 2010). Oxeladin was compared to whole blood with or without the anticoagulant benzamidine and several other S1R ligands at doses 10× greater than those that stimulate the release of BDNF (Dalwadi et al., 2022; Dalwadi et al., 2017). Blood was rapidly collected into chilled, pre-weighed plastic tubes containing a known quality of EDTA disodium salt (>3.7 mM) electrostatically-coated onto the tube wall. Blood was prevented from coagulating by gently swirling the chilled EDTA-coated tube. The tube was weighed and the volume of collected blood calculated in order to compute the exact concentration of EDTA in the uncoagulated blood sample allowing us to determine which concentration of calcium to add back into the blood to initiate coagulation. Uncoagulated blood samples were stored chilled. The following was be dispensed into NUNC™ MICROWELL™ MiniTrays: 8 μL/well of normal saline containing a concentration of calcium 1.2 mM higher than that of the concentration of EDTA in the blood sample, 1 μL/well of oxeladin, 3 mM benzamidine anticoagulant positive control, or untreated or vehicle negative controls, and 1 μL/well of (EDTA-treated) uncoagulated rat blood. Plates were tilted at a 45° angle at 5, 15, 30, 45 and 60 minutes to observe coagulation (i.e., no streaking) and compared to the controls. Each triplicate well was scored by a treatment-blinded observer as Yes (coagulation, no streaking) or No (no coagulation, streaking). The experiment was repeated with two separate donor rats.
Referring to FIG. 5, the effect on thrombotic activity of test drugs, benzamidine anticoagulant positive control, or untreated or vehicle negative controls on whole blood from donor rats was assessed by tilting treated blood samples at a […] to observe coagulation (i.e., no streaking) between […] (top panel). Blood coagulation was represented by a value between 1 (no streaking, coagulation) and 0 (streaking, less or no coagulation), and values were assigned for each test drug, benzamidine, and untreated and vehicle controls (bottom panel). Quantitative results from these clotting assays, including coagulation half-life, are summarized below in Table 5.

A further data set has as its system BDNF. Description: BDNF western blot in ischemic penumbra after tMCAO. The format is in vivo, rat. To be noted: single dose 135 mg/kg 48 hours after tMCAO; P=0.02. On the procedure: Rats were sacrificed under isoflurane anesthesia 2, 6, or 24 hours after dosing, and brains were removed to assess protein expression in the ischemic and contralateral cortex by immunoblotting. Brains were rapidly removed, chilled for 2 min in ice-cold saline, and sliced into 2 mm coronal slices with a brain matrix for rapid 2,3,5 triphenyltetrazolium chloride (TTC) staining. Sections were immersed in 1% TTC for 1 minute at room temperature to reveal the extent of the infarct. Cortical penumbra tissue was collected, snap frozen, and stored at −80° C. for subsequent western blotting. Protein was extracted from tissue using T-PER™ reagent with HALT protease inhibitor (Thermo-Pierce), and concentrations were determined with the PIERCE® BCA assay (Thermo-Pierce). Protein was separated on 4-20% SDS-PAGE gels (BioRad) and transferred to nitrocellulose. Blots were probed with primary antibodies for BDNF (Abcam ab226842; 1:1000) and goat anti-rabbit-HRP secondary (Thermo 32260; 1:10,000). Bands were visualized by ECL with PIERCE® SUPERSIGNAL® West Dura Femto (Thermo-Pierce) reagent using a UVP EpiChemi3. Density was assessed with Image J and normalized to β-actin (Thermo MA1-91399; 1:1000).
A general note: A western blot detects proteins with antibodies after separation by electrophoresis.

The test system of data set [1] is rat model of focal cerebral ischemia (tMCAO). Nature of the data set: Neurological function after transient middle cerebral artery occlusion (Bederson, NDS, EBST). Type of data set: in vivo. As to conditions: for Neurological Deficit Score (NDS), Dunn's test: 135 mg/kg/d p.o. As to the method: Evaluating the effect of Sigma receptor agonists in a rat model of focal cerebral ischemia. Rats were anesthetized with 5% isoflurane in oxygen and maintained at ˜2% through a nosecone. Core temperature was maintained with an infrared heating pad controlled by a rectal probe. Transient middle cerebral artery occlusion (tMCAO) was performed as previously described (Oppong-Gyebi et al., 2022). Briefly, a midline incision was made from the neck to the sternum. The left common carotid artery and bifurcation was mobilized, and a silicon-coated suture (Doccol, Sharon MA) was inserted through the external carotid artery into the internal carotid artery to reach the origin of the MCA at the base of the brain. The incision was closed, and rats were allowed to awaken so that successful occlusion could be assessed. Rats not displaying hemiparesis immediately post-surgery were excluded from the study. After 85-90 minutes occlusion, rats were anesthetized, and the suture was withdrawn to allow reperfusion. Rats were injected subcutaneously with 5 ml saline bilaterally to provide hydration during recovery. On the day following tMCAO, rats were assessed for persistent signs of stroke.
Only rats displaying hemiparesis immediately post-surgery were included in the study. Rats with a Bederson score of 0 or <50% contralateral bias on the elevated body swing test (EBST) (Borlongan and Sanberg, 1995) on Day 1 after tMCAO were excluded from the study. Animals that became moribund or died within 24 hours of tMCAO were excluded from the study.
Two days before tMCAO rats were trained to lick 5% sucrose from a 1 ml syringe. After behavioral assessment on Day 1 after tMCAO, rats were randomly assigned to 4 groups in a blinded fashion. Groups included sucrose Vehicle, or 45, 68 or 135 mg/kg oxeladin. Oxeladin was prepared in 5% sucrose and provided to rats from the end of a 1 ml syringe. Starting 48 hours after stroke, rats were administered treatments daily from day 3 to day 14. On days 3-14 rats were injected i.p. with 50 mg/kg bromodeoxyuridine (BrdU; Fisher Bioreagents). At the conclusion of the study, rats were euthanized under deep isoflurane anesthesia. Rats were transcardially perfused with cold saline and either decapitated for brain collection and flash freezing of brain tissue or transcardially perfused with 4% formaldehyde for immunohistochemical studies.
On days 1, 3, 7, and 14 after tMCAO, rats underwent a series of behavioral tests by a treatment blinded observer. All tests were performed in a room dimly lit with red light. Rats were assessed by the Bederson test (Bederson et al., 1986), and an 11-point Neurological Deficit test as previously described (Oppong-Gyebi et al., 2022). The elevated body swing test (EBST) was performed in an open field with 30 seconds between each of 20 lifts by the base of the tail (Borlongan and Sanberg, 1995). The EBST was scored as percent of nose swing to the contralateral side to the tMCAO.
The observer scored the rats using the Bederson test, which evaluates global neurological function and grades rodents on a scale of 0-5. Grade 0 (no defects) is assigned if animals extend both forelimbs toward the floor when suspended above the floor. Grade 1 (mild defects) is given when animals show forelimb flexion without any other abnormality. Grade 2 (modest defects) is given when animals display forelimb flexion and decreased resistance to lateral push toward the paretic side. Animals further showing circling behavior are scored Grade 3 (severe defects).
The observer also scored the rats using the Elevated Body Swing Test (EBST) in which rats lifted by the tail and held vertically swing their heads to the left or to the right. Whereas healthy animals on a group level are likely to swing approximately 50% to either side, animals with a unilateral cerebral lesion, e.g. ischemic stroke, should present with a dominant/biased swing direction.

The mark [2] stands for this setting: 68 mg/kg/d p.o. starting 48 hours after tMCAO, days 7 and 14.

Molecules are shown by their SMILES. “Also recorded” adds a separate entry of the source.

Turning to `CCN(CC)CCOCCOC(=O)C(CC)(CC)c1ccccc1` [Oxeladin], the “effect on thrombosis in blood” value in the data set on rat blood is on record as “do not alter thrombosis”. For the same molecule, the “ratio of mature 17 kDa BDNF to 42 kDa pro-BDNF in the ischemic penumbra” value in the data set on BDNF was “significantly increased”. Besides, the “Bederson score vs Vehicle” value in data set [1] (setting [2]) is given as “significantly improved”; in data set [1] (135 mg/kg/d p.o. starting 48 hours after tMCAO, days 3, 7 and 14), “significant improvements; also recorded: significantly improved”. The “Elevated Body Swing Test (EBST) vs Vehicle” value is reported as “significantly improved” in data set [1] (setting [2]); “not 135 mg/kg showed improvement” in data set [1] (135 mg/kg/d p.o. starting 48 hours after tMCAO, days 7 and 14). For the same molecule, the “Neurological Deficit Score (NDS) vs Vehicle” value in data set [1] (135 mg/kg/d p.o. starting 48 hours after tMCAO, days 3 and 7) is recorded as “significantly improved”. Also, the “Neurological Deficit Score (NDS), Dunn's test” value was “trend for improvement” in data set [1] (day 3 (P=0.072)) and “significant improvements” in data set [1] (day 7 (P=0.028)). Moreover, the “functional recovery after tMCAO” value in data set [1] (overall conclusion, p.o. dosing) is “improves functional recovery”.
